Test results reported in US6436918B1, “Steroid sulfatase inhibitors and methods for making and using the same” (Duquesne University of the Holy Ghost, priority 1997, dated 2002).
Like-named read-outs stand apart in the source and are kept apart here.

Target: T1, recombinant human estrone sulfatase (Homo sapiens, UniProt P08842)
T1 construct: made in house; host or cells: Chinese Hamster Ovary (CHO) cells
T1 sequence (P08842 22-583): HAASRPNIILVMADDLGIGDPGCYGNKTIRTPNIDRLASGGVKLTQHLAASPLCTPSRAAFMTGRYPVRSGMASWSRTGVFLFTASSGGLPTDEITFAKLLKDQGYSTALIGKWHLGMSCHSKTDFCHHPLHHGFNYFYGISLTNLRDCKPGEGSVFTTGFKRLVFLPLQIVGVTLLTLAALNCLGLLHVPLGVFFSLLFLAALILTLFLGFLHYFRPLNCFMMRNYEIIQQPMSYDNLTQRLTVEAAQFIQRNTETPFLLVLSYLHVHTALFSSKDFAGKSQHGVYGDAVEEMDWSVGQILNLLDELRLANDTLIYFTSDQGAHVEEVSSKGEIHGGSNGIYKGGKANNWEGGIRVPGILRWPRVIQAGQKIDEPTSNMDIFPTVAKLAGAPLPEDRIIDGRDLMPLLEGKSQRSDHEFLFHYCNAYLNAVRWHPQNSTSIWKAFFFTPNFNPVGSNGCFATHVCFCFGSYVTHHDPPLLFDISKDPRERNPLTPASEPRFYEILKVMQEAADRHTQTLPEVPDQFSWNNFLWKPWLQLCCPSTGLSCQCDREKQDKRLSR
Test: in vitro conversion assay: inhibition of conversion of 3H-estrone sulfate to 3H-estrone by estrone sulfatase
Assay type: biochemical
Experimental: The compounds prepared according to the methods of the above Examples were tested for biological activity in inhibiting sulfatase activity using an in vitro conversion assay procedure. As will be appreciated by those skilled in the art, this assay is based on inhibition of the conversion of ^3H-estrone sulfate to ^3H-estrone by the enzyme estrone sulfatase. The final volume of the enzyme assay was 0.15 ml. [6.7-^3H] estrone sulfate (final concentration 3.3 nmole/L; 300,000 dpm/tube); an inhibitor at various concentrations in DMSO and recombinant human estrone sulfatase (33 ng/tube) in phosphate buffered saline, containing 0.25 M sucrose and 0.04 M nicotinamide, pH 7, were added to a 1.5 ml microtube. Recombinant human estrone sulfatase was partially purified from Chinese Hamster Ovary (CHO) cells in which human estrone sulfatase cDNA was transfected. The assay began by the addition of the substrate estrone sulfate. After 60 minutes of incubation at 37° C., 0.5 ml of toluene were added to quench the assay. Control samples with no inhibitor were incubated simultaneously. Blank samples were obtained by incubating without estrone sulfatase. The quenched samples were vortexed for 30 seconds and centrifuged (9,000 rpm for 5 minutes). Two hundred and fifty microliters of toluene were obtained from each quenched sample to determine the amount of product formation. Product formation for samples containing an inhibitor was compared to that of control samples (without inhibitors) run simultaneously. This was reported as percent inhibition of control sample which equals
100× Product formation for sample containing inhibitor Product formation for sample with no inhibitor (control)
Each concentration was tested in duplicate in three separate experiments.

[1] = Table 3 (Example 8; compounds 7, 29d, 29h, 29m), same in vitro conversion assay, read-out: IC50

| SMILES | IC50 [1] [nM] | IC50 [nM] |
| --- | --- | --- |
| CC(C)NC(=O)[C@H]1CC[C@H]2[C@@H]3CCc4cc(OS(N)(=O)=O)ccc4[C@H]3CC[C@]12C [Compound 29h, 17β-(N-Isopropylcarbamnoyl)estra-1,3,5(10)-trien-3-yl sulfamate] | 17 | – |
| CCCNC(=O)[C@H]1CC[C@H]2[C@@H]3CCc4cc(OS(N)(=O)=O)ccc4[C@H]3CC[C@]12C [Compound 7, 17β-(N-Propylcarbamoyl)estra-1,3,5(10)-trien-3-yl sulfamate] | 19 | – |
| CC(C)CNC(=O)[C@H]1CC[C@H]2[C@@H]3CCc4cc(OS(N)(=O)=O)ccc4[C@H]3CC[C@]12C [Compound 29d, 17β-(N-Isobutylcarbamoyl)estra-1,3,5(10)-trien-3-yl sulfamate] | – | 6.5 |
| CCCN(C)C(=O)[C@H]1CC[C@H]2[C@@H]3CCc4cc(OS(N)(=O)=O)ccc4[C@H]3CC[C@]12C [Compound 29m, 17β-(N-methyl-N-Propylcarbamoyl)estra-1,3,5 (10)-trien-3-yl sulfamate] | – | 5.5 |
